Literature values as cited in patent US20100178364A1, “Dietary supplements against latent foreign DNA” (priority 2009, published 2010).
Like-named read-outs stand apart in the source and are kept apart here.

Columns and labels:
[1] = tested on: EBV immediate-early protein Rta
[2] = tested on: LT1/LT2 promoter; conditions: BJAB cells, GA-treated vs untreated
[3] = tested on: LANA-1, v-cyclin, and v-FLIP proteins; conditions: KSHV positive cells (BCBL-1, BC-3, BC-1) treated 2, 3, 6 days; effect reversible
[4] = tested on: KSHV-positive B cells
[5] = tested levels (3 and 4 mM)
[6] = tested on: CMV

O=C(O[C@@H]1Cc2c(O)cc(O)cc2O[C@@H]1c1cc(O)c(O)c(O)c1)c1cc(O)c(O)c(O)c1 [EGCG, Epigallocatechin gallate]
percentage of cells expressing Rta ([1]; TSA-treated P3HR1 cells, 100 mM EGCG): 0.5% | percentage of cells expressing Rta ([1]; TSA-treated P3HR1 cells, EGCG): 9.8%

CC1(C)[C@@H](O[C@H]2O[C@H](C(=O)O)[C@@H](O)[C@H](O)[C@H]2O[C@@H]2O[C@H](C(=O)O)[C@@H](O)[C@H](O)[C@H]2O)CC[C@]2(C)[C@H]3C(=O)C=C4[C@@H]5C[C@@](C)(C(=O)O)CC[C@]5(C)CC[C@@]4(C)[C@]3(C)CC[C@@H]12 [GA, glycyrrhizic acid]
LT1/LT2 promoter activity (luciferase expression) [2]: does not affect the LT1/LT2 promoter activity | LANA-1 protein expression [3]: decreased | disruption of mitochondrial membranes / DNA condensation ([4]; uninfected B cells): no disruptions of their mitochondrial membranes or DNA condensation | toxicity [5]: not being toxic at the tested levels

CCCCCCCCCCCCCC(=O)O[C@@H]1[C@@H](C)[C@@]2(O)[C@@H](C=C(CO)C[C@]3(O)C(=O)C(C)=C[C@@H]23)[C@@H]2C(C)(C)[C@]12OC(C)=O [TPA, 12-O-tetradecanoyl-phorbol-13-acetate, reference compound]
disruption of mitochondrial membranes / DNA condensation ([4]; TPA treatment (latent to lytic switch)): did not disrupt the mitochondrial membranes or caused DNA condensation

CC(/C=C/C(=O)NO)=C\[C@@H](C)C(=O)c1ccc(N(C)C)cc1 [TSA, reference compound]
percentage of cells expressing Rta ([1]; P3HR1 cells after TSA alone (lytic cycle activator)): 23.4%

C[C@H]1[C@H](OC(=O)CCC(=O)O)O[C@@H]2O[C@@]3(C)CC[C@H]4[C@H](C)CC[C@@H]1[C@@]24OO3 [artesunate]
viral decay T ½ ([6]; CMV load kinetics during artesunate treatment, oral 100 mg/day): 22 to 45.6 h | hematopoiesis ([6]; within 10 days): improved

Nc1nc(O)c2ncn(COC(CO)CO)c2n1 [ganciclovir]
decrease of viral DNA load ([6]; by day 7 of treatment, one patient): 1 log
